Experimental data: ChEMBL document CHEMBL5226366, “Synthesis and Structure Revision of Naturally Occurring Homoisoflavane (+)-Dracaeconolide B” (2023)

Key:
HUVEC = test: Antiangiogenic activity against HUVEC cells assessed as inhibition of cell growth incubated for 44 hrs by Alamar Blue fluorescence assay; type: functional; conditions: Homo sapiens
[1] = Antiangiogenic activity against human HREC cells assessed as inhibition of cell growth incubated for 44 hrs by Alamar Blue fluorescence assay; type: functional

Question: What does the source list for `COc1cc(O)c(OC)c2c1C[C@@H](Cc1ccc(O)cc1)CO2`?
Answer: GI50 (HUVEC): > 100 µM; GI50 [1]: > 100 µM

Question: With `COc1cc2c(c(O)c1OC)CC(Cc1ccc(O)cc1)CO2` (stereo unspecified) as the molecule, how does the GI50 (HUVEC) read?
Answer: 90.1 µM

Question: What about the GI50 [1] of the same molecule?
Answer: 3.47 µM

Question: With `COc1cc(OC)c2c(c1O)OCC(Cc1ccc(O)cc1)C2` (stereo unspecified) as the molecule, how does the GI50 (HUVEC) read?
Answer: > 100 µM

Question: What about the GI50 [1] of the same molecule?
Answer: 28.3 µM

Question: For `COc1c(O)cc2c(c1OC)C[C@H](Cc1ccc(O)cc1)CO2`, which GI50 (HUVEC) is on record?
Answer: > 100 µM

Question: What about the GI50 [1] of the same molecule?
Answer: > 100 µM

Question: Which GI50 (HUVEC) does the source give for `COc1cc(O)c2c(c1OC)OCC(Cc1ccc(O)cc1)C2` (stereo unspecified) here?
Answer: > 100 µM

Question: What about the GI50 [1] of the same molecule?
Answer: > 100 µM

Question: What does the source list for `COc1cc2c(c(OC)c1O)CC(Cc1ccc(O)cc1)CO2` (stereo unspecified)?
Answer: GI50 (HUVEC): > 100 µM; GI50 [1]: 0.96 µM

Question: With `COc1c(O)cc2c(c1OC)CC(Cc1ccc(O)cc1)CO2` (stereo unspecified) as the molecule, how does the GI50 (HUVEC) read?
Answer: > 100 µM

Question: And the GI50 [1]?
Answer: > 100 µM

Question: For `COc1c(O)cc2c(c1OC)C[C@@H](Cc1ccc(O)cc1)CO2`, which GI50 (HUVEC) is on record?
Answer: > 100 µM

Question: And the GI50 [1]?
Answer: > 100 µM
